# Measured values: patent US9416143B2, “Griseofulvin derivatives” (PIERRE FABRE MEDICAMENT, priority 2012, dated 2016)
# Like-named read-outs stand apart in the source and are kept apart here.
# What was measured:
# Assay type in all cases: cell-based
# [1] = system: HCC-1937 line (primary ductam breast carcinoma cell line); assay: Cell proliferation (ATPLite) on HCC-1937 line; conditions: read 48 hours after treatment
# Protocol: (§1) The lines N1E115 (ATCC, CRL2263), MDA-MB-231 (ATCC, HTB26) and HSC-1 (Health Science Research Resources Bank, JCRB1015) were cultured in DMEM medium (Dulbecco's Modified Eagle Medium) supplemented with 2 mM of L-Glutamine (Sigma, G7513) and 10% foetal calf serum (Hyclone, SH30109.03) or 20% for the HSC-1 cells. The HCC-1937 (ATCC, CRL2336) and A549 (ATCC, CCL185) lines were cultured in RPMI medium (Roswell Park Memorial Institute Medium) supplemented with 10% foetal calf serum and 2 mM of L-Glutamine. Finally, the SCC114 (DSMZ, ACC662) line was cultured in MEM medium (Minimum Essential Medium Eagle) supplemented with 10% foetal calf serum and 2 mM of L-Glutamine. Initially, in 96-well plates (Perkin Elmer, 6005668), the cells were seeded in their respective culture media with 750 cells per well for N1E115; 1000 cells per well for SCC114 and A549; 2000 cells per well for HCC-1937 and HSC-1; 2500 cells per well for MDA-MB-231. Cascade dilution of each compound was performed in dimethylsulfoxide (DMSO) (Sigma, D8418) from 10 mM stock solutions in 100% DMSO. Each of the dilutions was added to the cells 24 hours after seeding. Under these conditions the final solvent concentration was 0.1% DMSO. Reading of cell proliferation was conducted 72 hours after addition of products with the ATPLite kit (Perkin Elmer, 6016947) and following the manufacturer's directions except in the case of the HCC-1937 line for which this reading was carried out 48 hours after treatment. Analysis of proliferation results was performed by comparing with conditions in which solely the vehicle was added to the cells. The dose-response curves obtained were analysed using Prism 4.03 software (GraphPad Software Inc.) to determine the concentration of each compound allowing 50% inhibition of cell proliferation (IC50).
# (§2) As examples, the cytotoxic properties of some compounds of the invention evaluated on the lines A549 (lung cancer cell line), MDA-MB-231 line (mammary adenocarcinoma cell line), N1E115 (mouse brain neuroblastoma cell line), HCC-1937 line (primary ductam breast carcinoma cell line), HSC-1 (cutaneous squamous carcinoma cell line) and SCC114 line (oral squamous carcinoma cell line) are reported in Table 1, as compared with griseofulvin used as control product. The concentration values are expressed in micromolar units (μM).
# [2] = system: MDA-MB-231 line (mammary adenocarcinoma cell line); assay: Cell proliferation (ATPLite) on MDA-MB-231 line; conditions: read 72 hours after addition
# Protocol: as §1, §2
# [3] = system: N1E115 (mouse brain neuroblastoma cell line); assay: Cell proliferation (ATPLite) on N1E115 line; conditions: 50% inhibition of cell proliferation, read 72 hours after addition, read-out: IC50 (μM) N1E-115
# Protocol: as §1, §2
# [4] = system: SCC114 line (oral squamous carcinoma cell line); assay: Cell proliferation (ATPLite) on SCC114 line; conditions: read 72 hours after addition
# Protocol: as §1, §2
# [5] = system: A549 (lung cancer cell line); assay: Cell proliferation (ATPLite) on A549 line; conditions: read 72 hours after addition
# Protocol: as §1, §2
# [6] = system: HSC-1 (cutaneous squamous carcinoma cell line); assay: Cell proliferation (ATPLite) on HSC-1 line; conditions: 50% inhibition of cell proliferation, read 72 hours after addition
# Protocol: as §1, §2
# [7] = 50% inhibition of cell proliferation, read-out: IC50 (μM) HCC1937
# [8] = 50% inhibition of cell proliferation
# [9] = Homo sapiens, HCC1937, 50% inhibition of cell proliferation
# [10] = Homo sapiens, MDA-MB-231, 50% inhibition of cell proliferation
# [11] = SCC114, 50% inhibition of cell proliferation
Structure (SMILES),"IC50 [1, 7] [µM]","IC50 [2, 8] [µM]",IC50 [3] [µM],"IC50 [4, 8] [µM]","IC50 [5, 8] [µM]",IC50 [6] [µM],"IC50 [1, 9] [µM]","IC50 [2, 10] [µM]","IC50 [4, 11] [µM]","IC50 ([5]; Homo sapiens, A549, 50% inhibition of cell proliferation) [µM]"
"COc1cc(OC)c2c(c1Cl)O[C@]1(C2=O)C2=C(C[C@](C)(c3ccccc3)O2)C(=O)C[C@H]1C [compound 5, (2R,2′S,6R)-7′-chloro-4′,6′-dimethoxy-2,6-dimethyl-2-phenyl-5,6-dihydro-2H,3′H-2,7′-spirobi[benzofuran]-3′,4(3H)-dione]",> 10,0.86,0.25,0.38,0.95,,,,,
"COc1cc(OC)c2c(c1Cl)O[C@]1(C2=O)C2=C(C[C@](CCCCO)(c3ccccc3)O2)C(=O)C[C@H]1C [compound 14, (2 S,2′S,6R)-7′-chloro-2-(4-hydroxybutyl)-4′,6′-dimethoxy-6-methyl-2-phenyl-5,6-dihydro-2H,3′H-2,7′-spirobi[benzofuran]-3′,4(3H)-dione]",> 10,0.46,,0.74,0.44,0.86,,,,
"COc1cc(OC)c2c(c1Cl)O[C@]1(C2=O)C2=C(C[C@H](c3ccc(F)cc3)O2)C(=O)C[C@H]1C [compound 34, (2R,2′S,6R)-7′-chloro-2-(4-fluorophenyl)-4′,6′-dimethoxy-6-methyl-5,6-dihydro-2H,3′H-2,7′-spirobi[benzofuran]-3′,4(3H)-dione]",> 10,0.18,,0.21,0.072,0.45,,,,
"COc1cc(OC)c2c(c1Cl)O[C@]1(C2=O)C2=C(C[C@@H](c3ccc(F)cc3)O2)C(=O)C[C@H]1C [compound 35, (2S,2′S,6R)-7′-chloro-2-(4-fluorophenyl)-4′,6′-dimethoxy-6-methyl-5,6-dihydro-2H,3′H-2,7′-spirobi[benzofuran]-3′,4(3H)-dione]",> 10,0.25,,0.17,,0.38,,,,
"COc1cc(OC)c2c(c1Cl)O[C@]1(C2=O)C2=C(C[C@H](c3ccccc3F)O2)C(=O)C[C@H]1C [compound 37, (2R,2′S,6R)-7′-chloro-2-(2-fluorophenyl)-4′,6′-dimethoxy-6-methyl-5,6-dihydro-2H,3′H-2,7′-spirobi[benzofuran]-3′,4(3H)-dione]",> 10,0.27,,0.47,,1.4,,,,
"COc1cc(OC)c2c(c1Cl)O[C@]1(C2=O)C2=C(C[C@@](CCO)(c3ccccc3)O2)C(=O)C[C@H]1C [compound 46, (2R,2′S,6R)-7′-chloro-2-(2-hydroxyethyl)-4′,6′-dimethoxy-6-methyl-2-phenyl-5,6-dihydro-2H,3′H-2,7′-spirobi[benzofuran]-3′,4(3H)-dione]",> 10,,0.22,0.57,0.86,0.79,,,,
"COc1cc(OC)c2c(c1Cl)O[C@@]1(C=C([S+]([O-])Cc3ccccc3)C(=O)C[C@H]1C)C2=O (stereo partly drawn) [compound 97, (1′S,6′R)-3′-(benzylsulfinyl)-7-chloro-4,6-dimethoxy-6′-methyl-3H-spiro[benzofuran-2,1′-cyclohex[2]ene]-3,4′-dione]",,,,0.021,,0.14,,,,
"COc1cc(OC)c2c(c1Cl)O[C@@]1(C=C(S(=O)(=O)c3ccccc3)C(=O)C[C@H]1C)C2=O [compound 98, (1′S,6′R)-7-chloro-4,6-dimethoxy-6′-methyl-3′-(phenylsulfonyl)-3H-spiro[benzofuran-2,1′-cyclohex[2]ene]-3,4′-dione]",,,,0.41,,0.76,,,,
"COc1cc(OC)c2c(c1Cl)O[C@]1(C2=O)C(=O)c2c(nn(C)c2-c2ccccc2Cl)C[C@H]1C [compound 115, (2S,6′R)-7-chloro-3′-(2-chlorophenyl)-4,6-dimethoxy-2′,6′-dimethyl-6′,7′-dihydro-3H-spiro[benzofuran-2,5′-indazole]-3,4′(2′H)-dione]",,,,,,1.3,> 10,0.64,0.73,
"COc1cc(OC)c2c(c1Cl)O[C@]1(C2=O)C(=O)c2c(nn(C)c2-c2ccccc2Cl)C[C@H]1C [compound 126, (2S,3′R,6′R)-7-chloro-3′-(2-chlorophenyl)-4,6-dimethoxy-2′,6′-dimethyl-6′,7′-dihydro-3H-spiro[benzofuran-2,5′-indazole]-3,4′(2′H)-dione]",,,,0.73,,2.3,,,,

# Second part, the molecule after the results:
"IC50 [1, 7] [µM]","IC50 [2, 8] [µM]",IC50 [3] [µM],"IC50 [4, 8] [µM]","IC50 [5, 8] [µM]",IC50 [6] [µM],"IC50 [1, 9] [µM]","IC50 [2, 10] [µM]","IC50 [4, 11] [µM]","IC50 ([5]; Homo sapiens, A549, 50% inhibition of cell proliferation) [µM]",Structure (SMILES)
,,,0.14,,0.25,,,,,"COc1cc(OC)c2c(c1Cl)O[C@]1(C2=O)C(=O)c2c(nn(C)c2-c2ccccc2Br)C[C@H]1C [compound 130, (2S,3′S,6′R)-7-chloro-3′-(2-bromophenyl)-4,6-dimethoxy-2′,6′-dimethyl-6′,7′-dihydro-3H-spiro[benzofuran-2,5′-indazole]-3,4′(2′H)-dione]"
,,,0.51,,1.3,,,,,"COc1cc(OC)c2c(c1Cl)O[C@]1(C2=O)C(=O)c2c(nn(C)c2-c2ccccc2C(F)(F)F)C[C@H]1C [compound 135, (2S,3′S,6′R)-7-chloro-4,6-dimethoxy-2′,6′-dimethyl-3′-(2-(trifluoromethyl)phenyl)-6′,7′-dihydro-3H-spiro[benzofuran-2,5′-indazole]-3,4′(2′H)-dione]"
,,,,,> 10,> 10,1.4,0.43,0.45,"COC(=O)c1cc(-c2ccc(F)cc2)c2c(n1)C[C@@H](C)[C@]1(Oc3c(Cl)c(OC)cc(OC)c3C1=O)C2=O [compound 164, (2S,7′R)-methyl 7-chloro-4′-(4-fluorophenyl)-4,6-dimethoxy-7′-methyl-3,5′-dioxo-7′,8′-dihydro-3H,5′H-spiro[benzofuran-2,6′-quinoline]-2′-carboxylate]"
,,,,,0.5,> 10,0.17,0.23,,"COC(=O)C1=C[C@H](c2ccsc2)C2=C(C[C@@H](C)[C@]3(Oc4c(Cl)c(OC)cc(OC)c4C3=O)C2=O)N1 [compound 165, (2S,4′S,7′R)-methyl 7-chloro-4,6-dimethoxy-7′-methyl-3,5′-dioxo-4′-(thiophen-3-yl)-4′,5′,7′,8′-tetrahydro-1′H,3H-spiro[benzofuran-2,6′-quinoline]-2′-carboxylate]"
,,,0.62,9.2,> 10,,,,,"COc1cc(OC)c2c(c1Cl)O[C@]1(C2=O)C(N(C)CCN(C)c2ccccn2)=CC(=O)C[C@H]1C [compound 205, (1′S,6′R)-7-chloro-4,6-dimethoxy-6′-methyl-2′-(methyl(2-(methyl(pyridin-2-yl)amino)ethyl)amino)-3H-spiro[benzofuran-2,1′-cyclohex[2]ene]-3,4′-dione]"
,,,,,0.77,> 10,0.22,0.38,,"COC(=O)c1cc(-c2ccsc2)c2c(n1)C[C@@H](C)[C@]1(Oc3c(Cl)c(OC)cc(OC)c3C1=O)C2O (stereo partly drawn) [compound 255, (2S,7′R)-methyl 7-chloro-5′-hydroxy-4,6-dimethoxy-7′-methyl-3-oxo-4′-(thiophen-3-yl)-7′,8′-dihydro-3H,5′H-spiro[benzofuran-2,6′-quinoline]-2′-carboxylate]"
,,,,,0.84,> 10,0.33,0.51,,"COC(=O)c1cc(-c2ccc(F)cc2)c2c(n1)C[C@@H](C)[C@]1(Oc3c(Cl)c(OC)cc(OC)c3C1=O)C2O (stereo partly drawn) [compound 256, (2S,7′R)-methyl 7-chloro-4′-(4-fluorophenyl)-5′-hydroxy-4,6-dimethoxy-7′-methyl-3-oxo-7′,8′-dihydro-3H,5′H-spiro[benzofuran-2,6′-quinoline]-2′-carboxylate]"
,,,,,2.4,> 10,0.43,0.51,,"COc1cc(OC)c2c(c1Cl)O[C@]1(C2=O)C(O)c2c(-c3ccccc3)cc(C(=O)OC(C)C)nc2C[C@H]1C (stereo partly drawn) [compound 257, (2S,7′R)-isopropyl 7-chloro-5′-hydroxy-4,6-dimethoxy-7′-methyl-3-oxo-4′-phenyl-7′,8′-dihydro-3H,5′H-spiro[benzofuran-2,6′-quinoline]-2′-carboxylate]"
